From the NIST ThermoML archive (doi:10.1016/j.jct.2008.08.007)

Assay: molar heat capacity at constant pressure
Conditions: 101.33 kPa, Crystal

OC[C@H]1O[C@@H]2O[C@H]3[C@H](O)[C@@H](O)[C@@H](O[C@H]4[C@H](O)[C@@H](O)[C@@H](O[C@H]5[C@H](O)[C@@H](O)[C@@H](O[C@H]6[C@H](O)[C@@H](O)[C@@H](O[C@H]7[C@H](O)[C@@H](O)[C@@H](O[C@H]8[C@H](O)[C@@H](O)[C@@H](O[C@H]1[C@H](O)[C@H]2O)O[C@@H]8CO)O[C@@H]7CO)O[C@@H]6CO)O[C@@H]5CO)O[C@@H]4CO)O[C@@H]3CO [β-cyclodextrin]
Small sample (50 mg) DSC
Conditions | molar heat capacity at constant pressure [J/K/mol]
288.15 K | 1253.4
293.15 K | 1298.3
298.15 K | 1341.3
303.15 K | 1357.6
308.15 K | 1401.3
313.15 K | 1414.1
318.15 K | 1434.7
323.15 K | 1468.5
328.15 K | 1495.7
333.15 K | 1522.1
338.15 K | 1557.1
343.15 K | 1591.3
348.15 K | 1634.4
353.15 K | 1682.1
358.15 K | 1752.1

OC[C@H]1OC(O)C[C@@H](O)[C@@H]1O (stereo partly drawn) [2-deoxy-D-glucose]
Small sample (50 mg) DSC
Conditions | molar heat capacity at constant pressure [J/K/mol]
288.15 K | 189.6
293.15 K | 195.8
298.15 K | 200.2
303.15 K | 201
308.15 K | 204.5
313.15 K | 206.9
318.15 K | 209
323.15 K | 213.6
328.15 K | 214.7
333.15 K | 218.4
338.15 K | 224.9
343.15 K | 226.4
348.15 K | 233
353.15 K | 235.4
358.15 K | 244

OC[C@H]1O[C@@H]2O[C@H]3[C@H](O)[C@@H](O)[C@@H](O[C@H]4[C@H](O)[C@@H](O)[C@@H](O[C@H]5[C@H](O)[C@@H](O)[C@@H](O[C@H]6[C@H](O)[C@@H](O)[C@@H](O[C@H]7[C@H](O)[C@@H](O)[C@@H](O[C@H]1[C@H](O)[C@H]2O)O[C@@H]7CO)O[C@@H]6CO)O[C@@H]5CO)O[C@@H]4CO)O[C@@H]3CO [α-cyclodextrin]
Small sample (50 mg) DSC
Conditions | molar heat capacity at constant pressure [J/K/mol]
288.15 K | 1074.6
293.15 K | 1113.2
298.15 K | 1150
303.15 K | 1164.1
308.15 K | 1201.5
313.15 K | 1212.6
318.15 K | 1230.2
323.15 K | 1259.3
328.15 K | 1282.6
333.15 K | 1305.3
338.15 K | 1335.3
343.15 K | 1364.6
348.15 K | 1401.6
353.15 K | 1442.6
358.15 K | 1502.7

OC[C@H]1O[C@H](O)[C@H](O)[C@@H](O)[C@@H]1O [α-D-glucose]
Small sample (50 mg) DSC
Conditions | molar heat capacity at constant pressure [J/K/mol]
288.15 K | 210.2
293.15 K | 214.8
298.15 K | 219.9
303.15 K | 222.8
308.15 K | 226.5
313.15 K | 232.6
318.15 K | 235.8
323.15 K | 240.5
328.15 K | 242.1
333.15 K | 246.2
338.15 K | 250.5
343.15 K | 255.2
348.15 K | 260.4
353.15 K | 262.4
358.15 K | 267.7

O.OC[C@H]1O[C@@H](O[C@H]2[C@H](O)[C@@H](O)[C@@H](O)O[C@@H]2CO)[C@H](O)[C@@H](O)[C@H]1O [α-D-lactose hydrate]
Small sample (50 mg) DSC
Conditions | molar heat capacity at constant pressure [J/K/mol]
288.15 K | 400.9
293.15 K | 426.9
298.15 K | 435.8
303.15 K | 440.7
308.15 K | 446.4
313.15 K | 450
318.15 K | 452.2
323.15 K | 459.8
328.15 K | 464.5
333.15 K | 468.3
338.15 K | 477.1
343.15 K | 488.2
348.15 K | 497.7
353.15 K | 506.8
358.15 K | 522.7

O=C[C@H](O)[C@@H](O)[C@H](O[C@H]1O[C@H](CO)[C@@H](O[C@H]2O[C@H](CO)[C@@H](O)[C@H](O)[C@H]2O)[C@H](O)[C@H]1O)[C@H](O)CO [maltotriose]
Small sample (50 mg) DSC
Conditions | molar heat capacity at constant pressure [J/K/mol]
288.15 K | 638.3
293.15 K | 654
298.15 K | 662.5
303.15 K | 662.7
308.15 K | 666.3
313.15 K | 676.9
318.15 K | 683.9
323.15 K | 698.2
328.15 K | 707.4
333.15 K | 718.6
338.15 K | 736.3
343.15 K | 753.8
348.15 K | 773.2
353.15 K | 787.3
358.15 K | 823.7

O=CC[C@H](O)[C@H](O)CO [2-deoxy-D-erythropentose]
Small sample (50 mg) DSC
Conditions | molar heat capacity at constant pressure [J/K/mol]
288.15 K | 171.9
293.15 K | 167.6
298.15 K | 162
303.15 K | 163.6
308.15 K | 171.7
313.15 K | 178.4
318.15 K | 184.1
323.15 K | 197.4
328.15 K | 222

OC[C@H]1O[C@@](CO)(O[C@H]2O[C@H](CO)[C@@H](O)[C@H](O)[C@H]2O)[C@@H](O)[C@@H]1O [D-sucrose]
Small sample (50 mg) DSC
Conditions | molar heat capacity at constant pressure [J/K/mol]
288.15 K | 408.5
293.15 K | 416.6
298.15 K | 424.3
303.15 K | 429.4
308.15 K | 437.5
313.15 K | 445.5
318.15 K | 451
323.15 K | 466.2
328.15 K | 472.6
333.15 K | 482.5
338.15 K | 490.3
343.15 K | 498.8
348.15 K | 506.7
353.15 K | 513.9
358.15 K | 522

O=C(CO)[C@@H](O)[C@H](O)[C@H](O)CO [D-fructose]
Small sample (50 mg) DSC
Conditions | molar heat capacity at constant pressure [J/K/mol]
288.15 K | 220.3
293.15 K | 223.6
298.15 K | 227.7
303.15 K | 233.3
308.15 K | 236.9
313.15 K | 242.4
318.15 K | 247.3
323.15 K | 251.5
328.15 K | 251.8
333.15 K | 255.1
338.15 K | 259.6
343.15 K | 260.9
348.15 K | 266.4
353.15 K | 275.3
358.15 K | 290.4

OC[C@H]1O[C@@H](O[C@H]2[C@H](O)[C@@H](O)[C@H](O)O[C@@H]2CO)[C@H](O)[C@@H](O)[C@@H]1O [D-cellobiose]
Small sample (50 mg) DSC
Conditions | molar heat capacity at constant pressure [J/K/mol]
288.15 K | 407.8
293.15 K | 431
298.15 K | 436.1
303.15 K | 445
308.15 K | 443.1
313.15 K | 446.9
318.15 K | 448.7
323.15 K | 463.2
328.15 K | 463.5
333.15 K | 473.1
338.15 K | 481.1
343.15 K | 490.7
348.15 K | 503.2
353.15 K | 515.8
358.15 K | 534.8

O=C[C@H](O)[C@H](O)[C@H](O)CO [D-ribose]
Small sample (50 mg) DSC
Conditions | molar heat capacity at constant pressure [J/K/mol]
288.15 K | 171.3
293.15 K | 179.4
298.15 K | 183.2
303.15 K | 188.8
308.15 K | 193.9
313.15 K | 201.3
318.15 K | 209
323.15 K | 224.6
328.15 K | 245.1

O=C[C@@H](O)[C@@H](O)[C@H](O)[C@H](O)CO [D-mannose]
Small sample (50 mg) DSC
Conditions | molar heat capacity at constant pressure [J/K/mol]
288.15 K | 188.7
293.15 K | 200.7
298.15 K | 206.6
303.15 K | 215
308.15 K | 223.3
313.15 K | 228.2
318.15 K | 231.6
323.15 K | 234.5
328.15 K | 236.5
333.15 K | 242.1
338.15 K | 245.2
343.15 K | 249
348.15 K | 252.4
353.15 K | 254.1
358.15 K | 260.2

CO[C@H]1O[C@H](CO)[C@@H](O)[C@H](O)[C@H]1O [methyl-α-D-glucopyranoside]
Small sample (50 mg) DSC
Conditions | molar heat capacity at constant pressure [J/K/mol]
288.15 K | 232.1
293.15 K | 231
298.15 K | 233.7
303.15 K | 235.7
308.15 K | 240.7
313.15 K | 247.5
318.15 K | 255.9
323.15 K | 264.7
328.15 K | 274.2
333.15 K | 283.6
338.15 K | 293.4
343.15 K | 302.9
348.15 K | 311.5
353.15 K | 319
358.15 K | 325.5

O[C@@H]1[C@@H](O)[C@@H](O)OC[C@H]1O [xylopyranose, α-D-]
Vacuum adiabatic calorimetry
Conditions | molar heat capacity at constant pressure [J/K/mol]
288.15 K | 178.3
293.15 K | 180.9
298.15 K | 180.4
303.15 K | 182.8
308.15 K | 185.7
313.15 K | 185.8
318.15 K | 187.3
323.15 K | 190.4
328.15 K | 192
333.15 K | 192.6
338.15 K | 195.7
343.15 K | 200
348.15 K | 204.6
353.15 K | 209.4
358.15 K | 213.8

O=C[C@H](O)[C@@H](O)[C@@H](O)[C@H](O)CO [(+)-galactose]
Small sample (50 mg) DSC
Conditions | molar heat capacity at constant pressure [J/K/mol]
288.15 K | 203.3
293.15 K | 210.7
298.15 K | 213.7
303.15 K | 217.5
308.15 K | 222.3
313.15 K | 227.1
318.15 K | 229.4
323.15 K | 235.6
328.15 K | 236.8
333.15 K | 242.8
338.15 K | 247
343.15 K | 251.2
348.15 K | 254.7
353.15 K | 257.5
358.15 K | 265.1

CC(=O)N[C@@H](C=O)[C@@H](O)[C@H](O)[C@H](O)CO [N-acetyl-D-glucosamine]
Small sample (50 mg) DSC
Conditions | molar heat capacity at constant pressure [J/K/mol]
288.15 K | 269.8
293.15 K | 276.4
298.15 K | 276.9
303.15 K | 278
308.15 K | 283.3
313.15 K | 281
318.15 K | 281.4
323.15 K | 292.7
328.15 K | 293.1
333.15 K | 299.4
338.15 K | 303.8
343.15 K | 308.7
348.15 K | 319.7
353.15 K | 325.2
358.15 K | 332
